Target: T1, SjGRM7 (Schistosoma japonicum, UniProt A0A4Z2D6G5)
T1 construct: gene EWB00_004136; S. mansoni homologue is Smp_128940
T1 sequence (A0A4Z2D6G5 24-1036): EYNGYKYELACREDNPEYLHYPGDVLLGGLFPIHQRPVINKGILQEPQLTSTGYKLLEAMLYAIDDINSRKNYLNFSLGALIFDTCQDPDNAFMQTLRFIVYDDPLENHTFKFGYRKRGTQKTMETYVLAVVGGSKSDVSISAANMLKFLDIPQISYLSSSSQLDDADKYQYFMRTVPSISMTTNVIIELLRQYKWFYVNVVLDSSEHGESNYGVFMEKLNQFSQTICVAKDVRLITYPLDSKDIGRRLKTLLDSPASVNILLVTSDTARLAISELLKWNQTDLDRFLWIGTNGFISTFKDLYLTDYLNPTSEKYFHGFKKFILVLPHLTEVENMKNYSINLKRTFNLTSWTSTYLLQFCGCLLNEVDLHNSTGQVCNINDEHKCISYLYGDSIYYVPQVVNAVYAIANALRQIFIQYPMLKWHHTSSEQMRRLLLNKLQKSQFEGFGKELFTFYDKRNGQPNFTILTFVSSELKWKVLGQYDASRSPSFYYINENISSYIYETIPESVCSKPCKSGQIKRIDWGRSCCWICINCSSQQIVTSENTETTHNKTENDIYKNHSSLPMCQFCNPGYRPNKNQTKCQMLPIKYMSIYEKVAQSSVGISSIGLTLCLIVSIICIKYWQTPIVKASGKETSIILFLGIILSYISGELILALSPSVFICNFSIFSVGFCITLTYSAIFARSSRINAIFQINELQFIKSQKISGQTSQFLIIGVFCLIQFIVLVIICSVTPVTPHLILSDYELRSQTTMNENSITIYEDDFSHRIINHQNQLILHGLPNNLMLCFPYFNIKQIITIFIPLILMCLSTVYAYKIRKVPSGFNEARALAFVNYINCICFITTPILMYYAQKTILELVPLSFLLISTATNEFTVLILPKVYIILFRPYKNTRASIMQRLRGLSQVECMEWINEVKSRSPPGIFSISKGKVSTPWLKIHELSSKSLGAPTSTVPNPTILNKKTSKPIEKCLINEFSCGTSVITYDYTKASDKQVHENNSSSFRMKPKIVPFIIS
Test: Fluo-4 calcium mobilization in transfected HEK293T cells
Assay type: cell-based
Details: agonist; co-expressed G-alpha16; dose series

N[C@@H](CCC(=O)O)C(=O)O [L-glutamate]
Fluo-4 calcium mobilization in transfected HEK293T cells: SjGRM and SjGRM7 responded only to L-glutamate

From article PMC9750798, “A metabotropic glutamate receptor affects the growth and development of Schistosoma japonicum” (Frontiers in Microbiology, 2022)
